The source of these data is DBAASP.

Converted amounts (≈) assume the structure as drawn.

Assay in all cases: ≥ marks a high value that may be exact or a test limit, other limits are often not marked, values filed in µg/mL are converted to µM
For assay [1], the system named is Acinetobacter calcoaceticus.
In assay [2] the test system is Bacillus cereus.
The subject of assay [3] is Bacillus pumilus.
For assay [4], the system named is Candida albicans ATCC 2002.
The test system of assay [5] is Escherichia coli ATCC 25922.
The test system of assay [6] is Pseudomonas aeruginosa.
The subject of assay [7] is Shigella dysenteriae.
Assay [8] deals with Staphylococcus aureus ATCC 2592.
Assay [9] concerns Leuconostoc lactis.
The test system of assay [10] is Listeria innocua.
Assay [11] has as its system Micrococcus luteus.
Assay [12] concerns Pasteurella multocida.
For assay [13], the system named is Pseudomonas haemolytica.
In assay [14] the test system is Staphylococcus aureus ATCC 25923.
Assay [15] relates to Staphylococcus aureus ATCC 29213.
Assay [16] relates to Staphylococcus epidermidis.
The subject of assay [17] is Streptococcus uberis.
Assay [18] has as its system Acinetobacter baumannii ATCC 19606.
Assay [19] concerns Bordetella bronchiseptica CUN 11844-99.
Assay [20] concerns Brucella abortus 9.49 (per-).
Assay [21] relates to Escherichia coli CMCC 44102.
Assay [22] relates to Pseudomonas aeruginosa ATCC 27853.
The test system of assay [23] is Pseudomonas aeruginosa CUN 4158-02.
In assay [24] the test system is Staphylococcus aureus ATCC 43300.
In assay [25] the test system is Staphylococcus aureus CMCC 26003.
Assay [26] concerns Staphylococcus aureus ΔmprFpRBsyn.
The subject of assay [27] is Staphylococcus aureus ΔmprF.
The subject of assay [28] is Staphylococcus aureus.
Assay [29] deals with Staphylococcus epidermidis ATCC 12228.
Assay [30] has as its system Yersinia pestis KIM pYV.
Assay [31] relates to Escherichia coli KF111.
Assay [32] has as its system Escherichia coli KF130.
The test system of assay [33] is Escherichia coli UB1005.
For assay [34], the system named is Escherichia coli.
The subject of assay [35] is Pseudomonas aeruginosa H374.
Assay [36] relates to Pseudomonas aeruginosa H744.
The subject of assay [37] is Pseudomonas aeruginosa K799.
Assay [38] concerns Salmonella enterica subsp. enterica serovar Typhimurium ATCC 14028s.
Assay [39] has as its system Enterococcus faecalis.
Assay [40] has as its system Escherichia coli W3110.
Assay [41] has as its system Pseudomonas aeruginosa PAK.
In assay [42] the test system is Streptococcus gordonii Challis DL1.
Assay [43] deals with Streptococcus mitis ATCC 903.
The subject of assay [44] is Streptococcus mutans UA159.
Assay [45] relates to Streptococcus sanguinis NY101.
Assay [46] relates to Streptococcus sobrinus ATCC 33478.

As usually defined, the MIC is the least concentration at which growth counts as inhibited. As to `CC[C@H](C)[C@H](NC(=O)[C@@H]1CCCN1C(=O)[C@H](Cc1ccccc1)NC(=O)[C@@H](N)Cc1ccccc1)C(=O)N[C@H](C(=O)NCC(=O)N[C@@H](CCCCN)C(=O)N[C@@H](CC(C)C)C(=O)N[C@@H](CC(C)C)C(=O)N[C@@H](CO)C(=O)NCC(=O)N[C@@H](CC(C)C)C(=O)N[C@@H](CC(C)C)C(N)=O)C(C)C` [FFPIVGKLLSGLL], the MIC is at least 42.7 µM in assay [1]; at least 53.4 µM in [2]; 5.34 µM (≈ 7.49 µg/mL) in [3]; 3.56 µM (≈ 5 µg/mL) in assay [4]; 5.34 µM (≈ 7.49 µg/mL) in [5]; 3.56 µM (≈ 5 µg/mL) in [6]. Further, the MIC came to 14.2 µM (≈ 20 µg/mL) in assay [7] and 5.34 µM (≈ 7.49 µg/mL) in assay [8].
Turning to `CC[C@H](C)[C@H](NC(=O)[C@@H](NC(=O)[C@@H]1CCCN1C(=O)[C@@H](NC(=O)[C@@H](NC(=O)[C@H](Cc1cnc[nH]1)NC(=O)[C@@H]1CCCN1C(=O)[C@H](CC(C)C)NC(=O)[C@@H](NC(=O)[C@H](Cc1cnc[nH]1)NC(=O)[C@H](CCCCN)NC(=O)[C@H](C)NC(=O)[C@@H](NC(=O)[C@H](C)NC(=O)CNC(=O)[C@H](CC(C)C)NC(=O)[C@@H](NC(=O)[C@H](CO)NC(=O)[C@H](Cc1ccccc1)NC(=O)[C@H](CC(C)C)NC(=O)CN)C(C)C)C(C)C)C(C)C)C(C)C)C(C)C)C(C)C)C(=O)N[C@@H](C)C(=O)N[C@@H](CCC(=O)O)C(=O)N[C@@H](CCCCN)C(=O)N[C@@H](CC(C)C)C(N)=O` [GLFSVLGAVAKHVLPHVVPVIAEKL], the MIC in assay [9] worked out at 1.16 µM (≈ 3 µg/mL); in [10] it was 19.3 µM (≈ 50 µg/mL); in assay [11], 9.64 µM (≈ 25 µg/mL); in assay [12], 9.64 µM (≈ 25 µg/mL); in assay [13], 19.3 µM (≈ 50 µg/mL); in [14], 2.31 µM (≈ 6 µg/mL). The MIC in [15] came to 4.63 µM (≈ 12 µg/mL); in assay [16], 4.63 µM (≈ 12 µg/mL); in [17], 9.64 µM (≈ 25 µg/mL).
As for `CC[C@H](C)[C@H](NC(=O)[C@H](CCCN=C(N)N)NC(=O)[C@H](CCCN=C(N)N)NC(=O)[C@H](CC(C)C)NC(=O)[C@H](Cc1ccccc1)NC(=O)[C@@H](NC(=O)[C@H](CCCN=C(N)N)NC(=O)[C@H](CCSC)NC(=O)[C@@H](NC(=O)[C@H](CCCCN)NC(=O)[C@H](CCCCN)NC(=O)[C@H](CS)NC(=O)[C@@H](NC(=O)CNC(=O)[C@H](CCCN=C(N)N)NC(=O)[C@H](CC(C)C)NC(=O)[C@@H](NC(=O)[C@@H](N)CCCCN)[C@@H](C)CC)C(C)C)[C@@H](C)CC)[C@@H](C)O)C(=O)N[C@@H](CO)C(=O)N[C@@H](CCCCN)C(=O)N[C@@H](CC(=O)O)C(=O)N[C@H](C(=O)N[C@@H](CC(C)C)C(=O)N[C@H](C(=O)NCC(=O)N[C@@H](CCCCN)C(=O)N[C@@H](CCCCN)C(N)=O)[C@@H](C)O)[C@@H](C)CC` [KILRGVCKKIMRTFLRRISKDILTGKK], the MIC in [18] turned out to be 0.624 µM (≈ 2 µg/mL); in assay [19], 1.25 µM (≈ 4 µg/mL); in assay [20] it was 9.99 µM (≈ 32 µg/mL); in [5], 5 µM (≈ 16 µg/mL); in assay [21], 4 µM (≈ 12.8 µg/mL); in assay [22] it was 8 µM (≈ 25.6 µg/mL). Further, the MIC in assay [23] was 9.99 µM (≈ 32 µg/mL); in assay [24], 79.9 µM (≈ 256 µg/mL); in assay [25], 2 µM (≈ 6.4 µg/mL); in assay [26], 2.5 µM (≈ 8 µg/mL); in assay [27] it was 2.5 µM (≈ 8 µg/mL); in assay [28], 20 µM (≈ 64 µg/mL). Further, the figures for the MIC in [29] and in assay [30] were 2 µM (≈ 6.4 µg/mL) and at least 79.9 µM, respectively.
In the case of `CC[C@H](C)[C@H](NC(=O)[C@@H]1CCCN1C(=O)[C@H](CCCCN)NC(=O)[C@H](CC(C)C)NC(=O)[C@H](C)NC(=O)[C@@H](NC(=O)[C@H](Cc1cnc[nH]1)NC(=O)[C@H](Cc1ccccc1)NC(=O)[C@@H](NC(=O)[C@@H](NC(=O)[C@H](CCCN=C(N)N)NC(=O)[C@@H](NC(=O)[C@@H]1CCCN1C(=O)[C@H](CO)NC(=O)[C@H](CCCCN)NC(=O)[C@H](Cc1ccccc1)NC(=O)[C@@H](NC(=O)[C@H](CCCN=C(N)N)NC(=O)[C@H](CC(C)C)NC(=O)[C@H](Cc1ccccc1)NC(=O)[C@H](CO)NC(=O)[C@H](CCCCN)NC(=O)[C@H](Cc1c[nH]c2ccccc12)NC(=O)[C@@H](N)CCCCN)[C@@H](C)O)C(C)C)[C@@H](C)O)C(C)C)[C@@H](C)O)C(=O)N[C@@H](CO)C(=O)N[C@@H](CO)C(=O)O` [KWKSFLRTFKSPVRTVFHTALKPISS], the MIC in assay [31] was 1.31 µM (≈ 4 µg/mL); in assay [32] it was 1.31 µM (≈ 4 µg/mL); in assay [33], 0.653 µM (≈ 2 µg/mL); in [34], 0.653 µM (≈ 2 µg/mL); in assay [35], 5.22 µM (≈ 16 µg/mL); in [36] it was 5.22 µM (≈ 16 µg/mL). Further, the MIC in assay [37] was 5.22 µM (≈ 16 µg/mL); in assay [38], 2.61 µM (≈ 8 µg/mL); in [28], above 20.9 µM; in [16] it was 5.22 µM (≈ 16 µg/mL).
In the case of `NCCCC[C@H](NC(=O)[C@H](Cc1c[nH]c2ccccc12)NC(=O)[C@@H](N)Cc1c[nH]c2ccccc12)C(=O)N[C@@H](CC(=O)O)C(=O)N[C@@H](Cc1c[nH]c2ccccc12)C(=O)N[C@@H](Cc1c[nH]c2ccccc12)C(=O)N[C@@H](CCC(=O)O)C(=O)N[C@@H](CCCN=C(N)N)C(=O)N[C@@H](Cc1c[nH]c2ccccc12)C(N)=O` [WWKDWWERW], the MIC in assay [39] was at least 338 µM; in assay [40], at least 338 µM; in [41] it was at least 338 µM; in assay [28], above 338 µM; in assay [42], at least 338 µM; in assay [43], at least 338 µM. In addition, the MIC in assay [44], in [45] and in [46] was at least 338 µM in each case.
